Data from the supplement of paper PMC8617591.

Key:
[1] = tested on: Mycobacterium tuberculosis Erdman (autoluminescent); assay: total FIC50 (Loewe) at 50% inhibition, three-drug combination (log2); higher = more antagonistic
Description: (§1)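 DiaMOND equipotent three-drug combination dose responses (10 doses, 1.5- or 2-fold spacing, centred on IC90) against autoluminescent M. tuberculosis Erdman in 8 in vitro models. Read-out is OD600, or luminescence for the intracellular and dormancy models, normalised to untreated wells. Hill-fit Einf, AUC25 and GRinf are potency metrics; FIC50 and FIC90 are total Loewe fractional inhibitory concentrations as log2 (negative = synergy).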

[2] = tested on: Mycobacterium tuberculosis Erdman (autoluminescent); assay: total FIC90 (Loewe) at 90% inhibition, three-drug combination (log2); higher = more antagonistic
Description: as §1

[3] = tested on: Mycobacterium tuberculosis Erdman (autoluminescent); assay: Einf, fitted maximum growth inhibition of three-drug combination (fraction); higher = stronger maximal inhibition
Description: as §1

[4] = tested on: Mycobacterium tuberculosis Erdman (autoluminescent); assay: AUC25, normalised area under dose response up to IC25 (three-drug combination) (fraction (0-1)); higher = more potent at low dose
Description: as §1

[5] = tested on: Mycobacterium tuberculosis Erdman (autoluminescent); assay: GRinf, maximum normalised growth rate inhibition (three-drug combination) (unitless (-1 to 1)); higher = less effect (negative = killing)
Description: as §1

COc1nc2ccc(Br)cc2cc1[C@@H](c1ccccc1)[C@@](O)(CCN(C)C)c1cccc2ccccc12 [bedaquiline] + CC[C@@H](CO)NCCN[C@@H](CC)CO [ethambutol] + CO[C@H]1/C=C/O[C@@]2(C)Oc3c(C)c(O)c4c(O)c(c(/C=N/N5CCN(C)CC5)c(O)c4c3C2=O)NC(=O)/C(C)=C\C=C\[C@H](C)[C@H](O)[C@@H](C)[C@@H](O)[C@@H](C)[C@H](OC(C)=O)[C@@H]1C [rifampicin]
Details	AUC25, [4]	Einf, [3]	GRinf, [5]	total FIC50, [1]	total FIC90, [2]
in vitro model: acidic pH 5.7, time point: constant (~7 days, model-specific)	0.101	0.925	-0.517	0.255	–
in vitro model: acidic pH 5.7, time point: terminal (~4-5 doublings, model-specific)	0.0469	0.975	-0.16	0.433	-0.353
in vitro model: intracellular J774, time point: constant = terminal	–	0.946	-0.188	–	-2.17

Details	AUC25, [4]	Einf, [3]	GRinf, [5]	total FIC50, [1]	total FIC90, [2]
in vitro model: butyrate, time point: constant (~7 days, model-specific)	0.0854	0.947	-0.116	0.298	–
in vitro model: butyrate, time point: terminal (~4-5 doublings, model-specific)	0.0653	0.977	-0.0944	0.293	-0.34
in vitro model: cholesterol 0.05 mM, time point: constant (~7 days, model-specific)	0.0934	0.696	-0.186	0.99	–
in vitro model: cholesterol 0.05 mM, time point: terminal (~4-5 doublings, model-specific)	0.0802	0.866	-0.177	0.757	–
in vitro model: cholesterol-high 0.2 mM, time point: constant (~7 days, model-specific)	0.0442	0.972	-0.609	0.869	–
in vitro model: cholesterol-high 0.2 mM, time point: terminal (~4-5 doublings, model-specific)	0.0471	0.999	-0.732	0.649	0.577
in vitro model: dormancy (butyrate + nitrate, low O2), time point: constant (~7 days, model-specific)	0.0847	0.848	0.506	0.302	–
in vitro model: dormancy (butyrate + nitrate, low O2), time point: terminal (~4-5 doublings, model-specific)	0.0367	0.985	-0.0366	0.467	-0.773
in vitro model: standard 7H9 glycerol, time point: constant = terminal	0.0718	0.936	-0.0564	0.162	–
in vitro model: valerate, time point: constant (~7 days, model-specific)	0.0696	0.904	-0.043	0.575	–
in vitro model: valerate, time point: terminal (~4-5 doublings, model-specific)	0.0304	0.944	-0.0659	0.707	-0.531

COc1nc2ccc(Br)cc2cc1[C@@H](c1ccccc1)[C@@](O)(CCN(C)C)c1cccc2ccccc12 [bedaquiline] + CC[C@@H](CO)NCCN[C@@H](CC)CO [ethambutol] + COc1c(N2C[C@@H]3CCCN[C@@H]3C2)c(F)cc2c(=O)c(C(=O)O)cn(C3CC3)c12 [moxifloxacin]
Details	AUC25, [4]	Einf, [3]	GRinf, [5]	total FIC50, [1]	total FIC90, [2]
in vitro model: acidic pH 5.7, time point: constant (~7 days, model-specific)	0.0871	0.818	-0.484	0.542	–
in vitro model: acidic pH 5.7, time point: terminal (~4-5 doublings, model-specific)	0.0798	0.968	-0.239	0.896	0.318
in vitro model: intracellular J774, time point: constant = terminal	–	0.951	-0.177	–	-0.597

Details	AUC25, [4]	Einf, [3]	GRinf, [5]	total FIC50, [1]	total FIC90, [2]
in vitro model: butyrate, time point: constant (~7 days, model-specific)	0.0669	0.943	-0.107	0.634	–
in vitro model: butyrate, time point: terminal (~4-5 doublings, model-specific)	0.0565	0.976	-0.091	0.608	0.135
in vitro model: cholesterol 0.05 mM, time point: constant (~7 days, model-specific)	0.0787	0.746	-0.304	0.605	–
in vitro model: cholesterol 0.05 mM, time point: terminal (~4-5 doublings, model-specific)	0.0645	0.902	-0.132	1.36	0.517
in vitro model: cholesterol-high 0.2 mM, time point: constant (~7 days, model-specific)	0.0262	0.947	-0.654	1.13	–
in vitro model: cholesterol-high 0.2 mM, time point: terminal (~4-5 doublings, model-specific)	0.0315	1	-0.729	1.33	1.07
in vitro model: dormancy (butyrate + nitrate, low O2), time point: constant (~7 days, model-specific)	0.14	0.884	0.39	1.02	–
in vitro model: dormancy (butyrate + nitrate, low O2), time point: terminal (~4-5 doublings, model-specific)	0.114	0.987	-0.126	0.343	0.644
in vitro model: standard 7H9 glycerol, time point: constant = terminal	0.0556	0.955	-0.0832	0.482	0.479
in vitro model: valerate, time point: constant (~7 days, model-specific)	0.0922	0.906	-0.0299	0.726	–
in vitro model: valerate, time point: terminal (~4-5 doublings, model-specific)	0.0526	0.939	-0.0195	0.757	0.289

COc1nc2ccc(Br)cc2cc1[C@@H](c1ccccc1)[C@@](O)(CCN(C)C)c1cccc2ccccc12 [bedaquiline] + CC[C@@H](CO)NCCN[C@@H](CC)CO [ethambutol] + NC(=O)c1cnccn1 [pyrazinamide]
Details	AUC25, [4]	Einf, [3]	GRinf, [5]	total FIC50, [1]	total FIC90, [2]
in vitro model: acidic pH 5.7, time point: constant (~7 days, model-specific)	0.0897	0.873	-0.571	-0.0886	–
in vitro model: acidic pH 5.7, time point: terminal (~4-5 doublings, model-specific)	0.0657	0.97	-0.4	0.412	-0.299
in vitro model: intracellular J774, time point: constant = terminal	–	0.975	-0.486	–	-0.0128

Details	AUC25, [4]	Einf, [3]	GRinf, [5]	total FIC50, [1]	total FIC90, [2]
in vitro model: butyrate, time point: constant (~7 days, model-specific)	0.0804	0.958	-0.23	0.369	–
in vitro model: butyrate, time point: terminal (~4-5 doublings, model-specific)	0.0692	0.98	-0.518	0.327	-0.0291
in vitro model: cholesterol 0.05 mM, time point: constant (~7 days, model-specific)	0.0893	0.735	-0.275	–	–
in vitro model: cholesterol 0.05 mM, time point: terminal (~4-5 doublings, model-specific)	0.113	0.942	-0.531	1.2	–
in vitro model: cholesterol-high 0.2 mM, time point: constant (~7 days, model-specific)	0.0376	0.954	-0.425	1.15	–
in vitro model: cholesterol-high 0.2 mM, time point: terminal (~4-5 doublings, model-specific)	0.0549	1	-0.723	1	1.04
in vitro model: dormancy (butyrate + nitrate, low O2), time point: constant (~7 days, model-specific)	0.11	0.818	0.489	0.665	–
in vitro model: dormancy (butyrate + nitrate, low O2), time point: terminal (~4-5 doublings, model-specific)	0.106	0.99	-0.119	0.467	0.729
in vitro model: standard 7H9 glycerol, time point: constant = terminal	0.0685	0.924	0.0247	0.382	–
in vitro model: valerate, time point: constant (~7 days, model-specific)	0.0945	0.901	-0.0908	0.734	–
in vitro model: valerate, time point: terminal (~4-5 doublings, model-specific)	0.0602	0.954	-0.0443	0.806	-0.297
